Experimental data published in PubChem BioAssay AID330 (DTP/NCI, 2004).
Values joined by “and” are separate entries in the source; they are usually repeats but may differ in a detail not shown here. Equal values may be shown once. Toxic doses and inconclusive results are not listed.

System: P388 leukemia ip, CD2F1 mice, survival T/C
Assay: NCI In Vivo Anticancer Drug Screen. Data for tumor model P388 Leukemia (intraperitoneal) in CD2F1 (CDF1) mice
Settings: endpoint: median survival time, higher = longer survival
Method in brief: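 Mice carrying the transplanted tumor received test compound or vehicle. Survival was recorded in each group, and the value is the treated-group measurement divided by that of the vehicle-treated control group.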

[1] = dose: 12.5 mg/kg/injection, schedule: Q01DX009 (ip), vehicle: saline
[2] = dose: 25.0 mg/kg/injection, schedule: Q01DX009 (ip), vehicle: saline
[3] = dose: 50.0 mg/kg/injection, schedule: Q01DX009 (ip), vehicle: saline
[4] = dose: 50.0 mg/kg/injection, schedule: Q01DX005 (ip), vehicle: saline with Tween-80

O=C(O)C(O)CBr (stereo unspecified)
T/C [1]: 100 % of control
T/C [2]: 95 % of control
T/C (dose: 25.0 mg/kg/injection, schedule: Q04DX003 (ip), vehicle: saline): 91 % of control
T/C [3]: 95 % of control
T/C (dose: 50.0 mg/kg/injection, schedule: Q04DX003 (ip), vehicle: saline): 87 % of control

C=C1OC(C)=C(C(=O)OC(C)(C)C)C1C (stereo unspecified)
T/C (dose: 100.0 mg/kg/injection, schedule: Q01DX001 (ip), vehicle: saline with Tween-80): 106 % of control
T/C (dose: 200.0 mg/kg/injection, schedule: Q01DX001 (ip), vehicle: saline with Tween-80): 102 % of control
T/C (dose: 400.0 mg/kg/injection, schedule: Q01DX001 (ip), vehicle: saline with Tween-80): 105 % of control

c1ccc2c(c1)[nH]c1c2c[n+]2c3c(cccc13)CCC2
T/C (dose: 8.33 mg/kg/injection, schedule: Q01DX009 (ip), vehicle: saline): 115 % of control
T/C (dose: 18.7 mg/kg/injection, schedule: Q01DX009 (ip), vehicle: saline): 95 % of control

O=c1[nH]cnc2cc(N3CCN(Cc4ccccc4)CC3)c([N+](=O)[O-])cc12
T/C (dose: 100.0 mg/kg/injection, schedule: Q04DX003 (ip), vehicle: Klucel (hydroxypropylcellulose) (HPC)): 102 % of control
T/C (dose: 200.0 mg/kg/injection, schedule: Q04DX003 (ip), vehicle: Klucel (hydroxypropylcellulose) (HPC)): 98 % of control
T/C (dose: 400.0 mg/kg/injection, schedule: Q04DX003 (ip), vehicle: Klucel (hydroxypropylcellulose) (HPC)): 106 % of control

O=C(Nc1ccc(C2=NCCN2)cc1)Nc1cccc(NC(=O)Nc2cccc(C3=NCCN3)c2)c1
T/C (dose: 0.75 mg/kg/injection, schedule: Q04DX003 (ip), vehicle: saline with Tween-80): 104 % of control
T/C (dose: 1.5 mg/kg/injection, schedule: Q04DX003 (ip), vehicle: saline with Tween-80): 118 % of control
T/C (dose: 8.0 mg/kg/injection, schedule: Q01DX009 (ip), vehicle: saline with Tween-80): 163 % of control
T/C (dose: 12.0 mg/kg/injection, schedule: Q01DX009 (ip), vehicle: saline with Tween-80): 254 % of control
T/C (dose: 12.5 mg/kg/injection, schedule: Q04DX003 (ip), vehicle: saline with Tween-80): 150 % of control
T/C (dose: 18.0 mg/kg/injection, schedule: Q01DX009 (ip), vehicle: saline with Tween-80): 272 % of control
T/C (dose: 100.0 mg/kg/injection, schedule: Q04DX003 (ip), vehicle: saline): 104 % of control

CC(C)CC1NC(=O)OC1=O (stereo unspecified)
T/C [4]: 98 % of control
T/C (dose: 100.0 mg/kg/injection, schedule: Q01DX005 (ip), vehicle: saline with Tween-80): 94 % of control
T/C (dose: 200.0 mg/kg/injection, schedule: Q01DX005 (ip), vehicle: saline with Tween-80): 91 % of control

[Cl][Sn]1([c]2ccccc2)[O]CCNCC[O]1
T/C (dose: 25.0 mg/kg/injection, schedule: Q01DX009 (ip), vehicle: suspension in saline): 97 % of control
T/C [3]: 120 % of control
T/C (dose: 50.0 mg/kg/injection, schedule: Q01DX009 (ip), vehicle: suspension in saline): 109 % of control
T/C (dose: 100.0 mg/kg/injection, schedule: Q01DX009 (ip), vehicle: suspension in saline): 109 % of control

COCN(CCc1ccccc1)CCN(C)C
T/C [3]: 113 % of control
T/C (dose: 100.0 mg/kg/injection, schedule: Q01DX009 (ip), vehicle: saline): 109 % of control

NCC1CC2(Cl)C(Cl)=C(Cl)C1(Cl)C2(Cl)Cl (stereo unspecified)
T/C (dose: 12.5 mg/kg/injection, schedule: Q01DX005 (ip), vehicle: saline with Tween-80): 106 % of control
T/C (dose: 25.0 mg/kg/injection, schedule: Q01DX005 (ip), vehicle: saline with Tween-80): 107 % of control
T/C [4]: 107 % of control and 111 % of control

CSC(SC)=C1C(=O)NC(=O)NC1=O
T/C (dose: 3.12 mg/kg/injection, schedule: Q01DX009 (ip), vehicle: saline with Tween-80): 104 % of control
T/C (dose: 6.25 mg/kg/injection, schedule: Q01DX009 (ip), vehicle: saline with Tween-80): 90 % of control
T/C (dose: 6.25 mg/kg/injection, schedule: Q01DX009 (ip), vehicle: saline): 111 % of control
T/C (dose: 12.5 mg/kg/injection, schedule: Q01DX009 (ip), vehicle: saline with Tween-80): 120 % of control
T/C [1]: 111 % of control
T/C [2]: 124 % of control
T/C (dose: 50.0 mg/kg/injection, schedule: Q01DX005 (ip), vehicle: Klucel (hydroxypropylcellulose) (HPC)): 95 % of control
T/C (dose: 100.0 mg/kg/injection, schedule: Q01DX005 (ip), vehicle: Klucel (hydroxypropylcellulose) (HPC)): 101 % of control

Cn1c2ccccc2c2cnn3c(-c4ccccc4)nnc3c21
T/C (dose: 100.0 mg/kg/injection, schedule: Q01DX001 (ip), vehicle: Klucel (hydroxypropylcellulose) (HPC)): 105 % of control
T/C (dose: 200.0 mg/kg/injection, schedule: Q01DX001 (ip), vehicle: Klucel (hydroxypropylcellulose) (HPC)): 100 % of control
T/C (dose: 400.0 mg/kg/injection, schedule: Q01DX001 (ip), vehicle: Klucel (hydroxypropylcellulose) (HPC)): 100 % of control

O=C(Oc1ccc2c(=O)cc(-c3ccccc3)oc2c1OC(=O)c1ccccc1)c1ccccc1
T/C (dose: 60.0 mg/kg/injection, schedule: Q01DX005 (ip), vehicle: saline with Tween-80): 94 % of control
T/C (dose: 120.0 mg/kg/injection, schedule: Q01DX005 (ip), vehicle: saline with Tween-80): 93 % of control
T/C (dose: 240.0 mg/kg/injection, schedule: Q01DX005 (ip), vehicle: saline with Tween-80): 90 % of control
